According to the PolyMetriX glass transition set:
± gives the standard deviation of the reports.

First: *c1ccc2nc(-c3ccc4c(c3)C(=O)N(c3cc(C(*)(C(F)(F)F)C(F)(F)F)ccc3O)C4=O)oc2c1 (repeat unit)
Second: *c1ccc2c(c1)C(=O)N(c1ccc(Oc3ccc(N4C(=O)c5ccc(C(*)(C(F)(F)F)C(F)(F)F)cc5C4=O)cc3)cc1)C2=O (repeat unit)
The glass transition temperature of the first is higher: 329.00 °C for the first, 295.50 ± 11 °C for the second.

Compared with *CC(*)c1ccc(COc2ccc(-c3ccc(-c4ccc(C)cc4)c4nsnc34)cc2)cc1 (repeat unit), *Oc1ccc(C(C)(C)c2ccc(OC(=O)c3ccc(CC(*)=O)cc3)cc2)cc1 (repeat unit) is lower in glass transition temperature: 117.00 °C for the first, 85.00 °C for the second.

Compared with *OC(COC(=O)c1ccc(C(*)=O)c2ccccc12)COc1ccc(/N=N/c2ccc(C#N)cc2)cc1 (repeat unit), *CCCCCCOC(=O)c1cc(/N=N/c2ccc(OCC)cc2)ccc1-c1ccc(/N=N/c2ccc(OCC)cc2)cc1C(=O)O* (repeat unit) is lower in glass transition temperature: 117.00 °C for the first, 83.00 °C for the second.

Compared with *c1ccc(-c2cc(C(C)(C)C)c(Oc3ccc(N4C(=O)c5ccc(Oc6ccc7c(c6)C(=O)N(*)C7=O)cc5C4=O)cc3)c(C(C)(C)C)c2)cc1 (repeat unit), *c1ccc(Oc2cccc(N3C(=O)c4ccc(Oc5cccc6c(Oc7ccc8c(c7)C(=O)N(*)C8=O)cccc56)cc4C3=O)c2)cc1 (repeat unit) is lower in glass transition temperature: 342.00 °C for the first, 235.00 °C for the second.

Compared with *OP(=O)(Oc1c(Cl)cccc1Cl)Oc1c(Cl)c(Cl)c(*)c(Cl)c1Cl (repeat unit), *CCOc1ccc(S(=O)(=O)c2ccc(OCCOP(=O)(O*)Oc3ccc([N+](=O)[O-])cc3)cc2)cc1 (repeat unit) is lower in glass transition temperature: 144.00 °C for the first, 56.00 °C for the second.

Going from *c1ccc(Cc2ccc(N3C(=O)c4ccc(S(=O)(=O)c5ccc6c(c5)C(=O)N(*)C6=O)cc4C3=O)cc2)cc1 (repeat unit) to *c1cc(N2C(=O)c3ccc(Oc4ccc5c(c4)C(=O)N(*)C5=O)cc3C2=O)c(O)cc1O (repeat unit), the glass transition temperature falls from 319.00 °C to 263.00 °C.

First: *Oc1ccc(CC(NC(=O)CCc2ccc(OC(=O)CCCCCCC(*)=O)cc2)C(=O)OCCCCCCCC)cc1 (repeat unit)
Second: *Oc1ccc(CC(NC(=O)CCc2ccc(OC(=O)CCC(*)=O)cc2)C(=O)OC(C)C)cc1 (repeat unit)
The glass transition temperature of the first is lower: 22.00 °C for the first, 82.00 °C for the second.

Compared with *CC(*)Cc1cccc(C)c1 (repeat unit), *CC(*)c1ccc(C(C)(C)O)cc1 (repeat unit) is higher in glass transition temperature: 40.00 °C for the first, 170.00 °C for the second.

Compared with *Oc1ccc(C(C)(C)c2ccc(OC(=O)c3cccc(C(*)=O)c3)c(C)c2)cc1C (repeat unit), *Oc1ccc(C(C)(C)c2ccc(OC(=O)c3ccc(S(=O)(=O)c4ccc(C(*)=O)cc4)cc3)cc2)cc1 (repeat unit) is higher in glass transition temperature: 162.00 °C for the first, 220.00 °C for the second.

First: *CC(*)(C)C(=O)OCCC[Si]12O[Si]3(CC(C)C)O[Si]4(CC(C)C)O[Si](CC(C)C)(O1)O[Si]1(CC(C)C)O[Si](CC(C)C)(O2)O[Si](CC(C)C)(O3)O[Si](CC(C)C)(O4)O1 (repeat unit)
Second: *CC(*)(C)C(=O)OCCOCCOCC[N+](CC)(CC)CCCCS(=O)(=O)O (repeat unit)
The glass transition temperature of the first is higher: 85.00 °C for the first, 27.00 °C for the second.

Compared with *CC(C[Si](*)(C)C)c1cccc2ccccc12 (repeat unit), *CCCCCCCCCCC(c1ccc(O)cc1)C(*)c1ccc(O)cc1C (repeat unit) is lower in glass transition temperature: 39.00 °C for the first, -4.00 °C for the second.

Compared with *CC(*)n1cncn1 (repeat unit), *CC(*)SCC (repeat unit) is lower in glass transition temperature: 165.00 °C for the first, -7.00 °C for the second.

First: *CCCCCCCCCCCC(=O)N* (repeat unit) [Poly(dodecano-12-lactam)]
Second: *CCCCCCCCCCNC(=O)CCCCCCCCC(=O)N* (repeat unit)
The glass transition temperature of the first is lower: 38.4 ± 3.2 °C for the first, 60.00 °C for the second.

Going from *Nc1cccc2c1C(=O)c1cccc(N[Se]*)c1C2=O (repeat unit) to *Nc1cccc(/C=C/c2ccc(NC(=O)c3cccc(C(*)=O)c3)cc2)c1 (repeat unit), the glass transition temperature rises from 52.00 °C to 272.00 °C.

Compared with *c1ccc(-c2c(-c3ccc(-c4ccccc4)cc3)cc(-c3ccc(OCCCCCCCCCCOc4ccc(-c5cc(-c6ccc(-c7ccccc7)cc6)c(-c6ccc(-n7c(=O)c8cc9c(=O)n(*)c(=O)c9cc8c7=O)cc6)c(-c6ccc(-c7ccccc7)cc6)c5)cc4)cc3)cc2-c2ccc(-c3ccccc3)cc2)cc1 (repeat unit), *C(=O)c1cc(C(=O)c2ccc3c(c2)C(=O)N(c2ccc(Oc4ccc(N5C(=O)c6ccc(*)cc6C5=O)cc4)cc2)C3=O)cc(-c2ccccc2)c1 (repeat unit) is higher in glass transition temperature: 121.00 °C for the first, 258.50 °C for the second.

First: *Oc1ccc(/N=C/CCC/C=N/c2ccc(OC(=O)NCCCCCCNC(*)=O)cc2)cc1 (repeat unit)
Second: *CCCCCCCCCCCCCCCCOC(=O)Nc1ccc(Cc2ccc(NC(=O)O*)cc2)cc1 (repeat unit)
The glass transition temperature of the first is higher: 72.00 °C for the first, 40.00 °C for the second.

Going from *c1c(C)cc(Cc2cc(C)c(N3C(=O)c4ccc(Oc5c(C)cc(-c6cc(C)c(Oc7ccc8c(c7)C(=O)N(*)C8=O)c(C)c6)cc5C)cc4C3=O)c(C)c2)cc1C (repeat unit) to *c1c(C)cc(C)c(N2C(=O)c3cccc(Oc4c(C)cc(-c5cc(C)c(Oc6cccc7c6C(=O)N(*)C7=O)c(C)c5)cc4C)c3C2=O)c1C (repeat unit), the glass transition temperature falls from 420.00 °C to 325.00 °C.

Going from *CC(*)(C)CCC (repeat unit) to *O[Si](*)(C)CCCC(=O)OC (repeat unit), the glass transition temperature falls from 27.00 °C to -72.00 °C.

Going from *c1cccc(N2C(=O)c3ccc(Oc4ccc5c(c4)C4(CC(C)(C)c6ccc(Oc7ccc8c(c7)C(=O)N(*)C8=O)cc64)CC5(C)C)cc3C2=O)c1 (repeat unit) to *C(=O)Nc1ccc(Oc2ccccc2-c2ccccc2Oc2ccc(NC(=O)c3ccc4c(c3)C(=O)N(c3cccc(N5C(=O)c6ccc(*)cc6C5=O)c3)C4=O)cc2)cc1 (repeat unit), the glass transition temperature falls from 253.00 °C to 237.00 °C.

Compared with *C(F)(F)C(*)(F)OC(F)(F)F (repeat unit), *CC(F)(F)C(F)(F)C(F)(F)COC(=O)c1ccc(OCCCCC)c(C(=O)O*)c1 (repeat unit) is higher in glass transition temperature: -5.00 °C for the first, 9.00 °C for the second.

Compared with *CCN(CCOC(=O)c1ccc(C(=O)O*)c(OCCC)c1)c1ccc(/N=N/c2ccc(-c3nc4ccccc4o3)cc2)cc1 (repeat unit), *c1cccc(NC(=O)c2ccc(OCCOCCOCCOCCOCCOc3ccc(C(=O)Nc4ccc5[nH]c(*)nc5c4)cc3)cc2)c1 (repeat unit) is higher in glass transition temperature: 117.00 °C for the first, 140.00 °C for the second.

Compared with *CCC1C(=O)N(CCCCCCCCCCCC)C(=O)C1* (repeat unit), *Nc1ccc(NC(=O)c2ccc(NC(=O)CCCCCCCCCCC(=O)Nc3ccc(C(*)=O)cc3)cc2)cc1C(=O)OCCCCCCCCCCCCCC (repeat unit) is higher in glass transition temperature: 55.40 °C for the first, 199.50 °C for the second.

First: *CCOC(=O)O* (repeat unit) [Poly(ethylene carbonate)]
Second: *CCOCCOCCOC(=O)CCSCCC(=O)O* (repeat unit)
The glass transition temperature of the first is higher: 10.92 ± 8.4 °C for the first, -35.00 °C for the second.

First: *c1ccc2c(c1)C(=O)N(c1cccc(P(=O)(c3ccccc3)c3cccc(N4C(=O)c5ccc(C(*)(C(F)(F)F)C(F)(F)F)cc5C4=O)c3)c1)C2=O (repeat unit)
Second: *c1ccc2c(c1)C(=O)N(C1CCC(CC3CCC(N4C(=O)c5ccc(C(*)(C(F)(F)F)C(F)(F)F)cc5C4=O)CC3)CC1)C2=O (repeat unit)
The glass transition temperature of the first is higher: 271.00 °C for the first, 265.00 °C for the second.

First: *c1ccc(Oc2ccc(C(c3ccc(Oc4ccc(-c5ccc(*)s5)cc4C(F)(F)F)cc3)(C(F)(F)F)C(F)(F)F)cc2)c(C(F)(F)F)c1 (repeat unit)
Second: *Oc1ccc(C(c2ccc(Oc3ccc(C(=O)c4cccc5cccc(C(=O)c6ccc(*)cc6)c45)cc3)cc2)(C(F)(F)F)C(F)(F)F)cc1 (repeat unit)
The glass transition temperature of the first is lower: 155.00 °C for the first, 213.00 °C for the second.

Compared with *Nc1cc(NC(=O)CCCCC(*)=O)cc(-c2nnc(-c3ccccn3)o2)c1 (repeat unit), */C=C/c1ccc(-c2nnc(-c3ccc(/C=C/c4ccc5c(c4)c4cc(*)ccc4n5CCCCCCCC)cc3)n2-c2ccccc2)cc1 (repeat unit) is lower in glass transition temperature: 159.00 °C for the first, 147.00 °C for the second.

Compared with *CCCCCCCCCCOc1c(OC)cc(/C=C2\CCC/C(=C\c3cc(OC)c(O*)c(OC)c3)C2=O)cc1OC (repeat unit), *CC(O)COc1c(C)cc(C(C)(C)c2cc(C)c(O*)c(C)c2)cc1C (repeat unit) is higher in glass transition temperature: 49.00 °C for the first, 130.00 °C for the second.

Compared with *Oc1ccc(S(=O)(=O)c2ccc(Oc3ccc(C(C)(C)c4ccc(*)cc4)cc3)c([N+](=O)[O-])c2)cc1[N+](=O)[O-] (repeat unit), *Oc1ccc(S(=O)(=O)c2ccc3cc(S(=O)(=O)c4ccc(Oc5c(C)cc(-c6cc(C)c(*)c(C)c6C)c(C)c5C)cc4)ccc3c2)cc1 (repeat unit) is higher in glass transition temperature: 206.00 °C for the first, 300.00 °C for the second.

First: *C#Cc1cccc(C#C[SiH](*)C)c1 (repeat unit)
Second: *Oc1ccc(NC(=C(C#N)C#N)c2ccc(-c3ccc(-c4ccc(C(Nc5ccc(*)cc5)=C(C#N)C#N)cc4)cc3)cc2)cc1 (repeat unit)
The glass transition temperature of the first is lower: 72.00 °C for the first, 240.00 °C for the second.

Compared with *Oc1ccc(Oc2ccc(S(=O)(=O)c3ccc(Oc4ccc(Oc5cccc(*)n5)cc4)cc3)cc2)cc1 (repeat unit), *c1ccc(Oc2ccc(-c3cccc4c3C(=O)N(Oc3ccc(C(=O)c5ccc(Oc6cccc7c6C(=O)N(*)C7=O)cc5)cc3)C4=O)cc2)cc1 (repeat unit) is higher in glass transition temperature: 158.00 °C for the first, 252.00 °C for the second.

Compared with */C=C/C1CC(*)C(C(=O)OCCCCCCCCCCCOc2ccc(-c3ccc(C#N)cc3)cc2)C1C(=O)OCCCCCCCCCCCOc1ccc(-c2ccc(C#N)cc2)cc1 (repeat unit), *CCOC(=O)CCC(=O)OCCOC(=O)c1ccc(C(=O)O*)cc1 (repeat unit) is higher in glass transition temperature: 23.10 °C for the first, 24.00 °C for the second.

Going from *c1cc(C)c(-c2c(C)cc(-n3c(=O)c4cc5c(=O)n(*)c(=O)c5cc4c3=O)cc2C)c(C)c1 (repeat unit) to *CC(*)C(=O)OC(Cl)C(Cl)(Cl)Cl (repeat unit), the glass transition temperature falls from 353.00 °C to 70.50 °C.
